# Measurements reported in patent US10287259B2, “Selenazolidine and thiazolidine compounds for treating cancer and other diseases” (The Penn State Research Foundation, priority 2016, dated 2019).
# Experiments:
# Format in all cases: cell-based
# Panc-1 cells [1] = test: MTT cell viability assay, Panc-1
# Description: (§1) MTT (3-(4,5-dimethylthiazol-2-yl)-2,5-diphenyltetrazolium) assay was performed to determine the effect of AS-10 on cancer cell viability (Plano et al., 2016, J. Med. Chem. 1946-1959; Alcolea et al., 2012, Eur. J. Med. Chem. 113:134-144; Kumar et al., 2014, Eur. J. Med. Chem. 81:267-276). Briefly, 3×10^3 cells were treated with different concentrations of AS-10 in triplicate in a 96-well plate for different time points. MTT solution (20 μL of 5.0 mg/mL solution) was added to each well, three hours prior to termination time point and incubated at 37° C. Resultant formazan crystals, at termination time point, were dissolved in 50 μL DMSO. The plate was subjected to a 96-well multiscanner (Dynex Technologies, MRX Revelation; Chantilly, Va., USA) for measuring the optical densities at 570 nm and 630 nm. IC50 values were determined by performing non-linear regression using Graphpad Prism software.
# To test the anti-cancer activity of AS-10 in pancreatic cancer (PC) cell lines, a MTT assay was performed. PC cell lines, Panc-1 and BxPC3, were treated with AS-10 at different doses at different time points (24, 48, and 72 h). Resulting cells were subjected to MTT cell viability assay. […] Panc-1 cells were treated with different doses of AS-10 for 48 h. After 48 h, live cells were counted and plated in a new petri dish. Cells were allowed to form colonies for 17 days. At the end of 17 days the colonies were counted and compared to the untreated cells.
# Lung cancer cells (A549) = test: MTT cell viability assay, A549; settings: A549, 48 h (FIG. 5C); acetate functionality removed
# Description: as §1
# pancreatic cancer cells = test: MTT cell viability assay, pancreatic cancer (PC) cells; settings: screening
# Description: as §1
# LNCaP cells = test: MTT cell viability test, LNCaP
# Description: as §1
# Panc-1 cells [2] = test: Muse Live/dead Annexin V assay; settings: Panc-1, 48 h; AS-10 2.5 μM, gemcitabine 50 μM
# Description: Muse Annexin V & Dead Cell kit was used to determine the apoptosis cells in AS-10 treated Panc-1 cells (Plano et al., 2016, J. Med. Chem. 1946-1959). The Muse Annexin V & Dead cell assay contains Annexin V to detect phosphatidylserine (PS) on the outer surface of cells. The kit also contains a dead cell marker, 7-amino-actinomycin D (7-AAD). […] In brief, Panc-1 (1.5×10^5) cells were treated with a given dose of AS-10 or DMSO for appropriate time (0, 6, 12, 24, 36, or 48 h). Both floating cells as well as adherent cells were collected and subjected for Annexin V staining using Muse Annexin V & Dead Cell kit with Muse cell analyzer (EMD Millipore, Billerica, Mass., USA). The obtained data were analyzed using Muse 1.4 software.
# Panc-1 cells [3] = test: Live/dead assay with calcein-AM and ethidium bromide; settings: Panc-1, 48 h; AS-10 2.5 μM, gemcitabine 50 μM
# Description: To determine the dead cell population, we used LIVE/DEAD Viability/Cytotoxicity Kit (L3224, Life technologies, USA). Panc-1 cells were treated with either DMSO, gemcitabine (50 μM), or AS-10 (2.5 μM) or in combination for 48 h. Live and dead cells were determined by subjecting treated cells to LIVE/DEAD Viability/Cytotoxicity Kit (Plano et al., 2016, J. Med. Chem. 1946-1959). […] While ethidium homodimer-1 can only enter cells who have lost their plasma membrane integrity or dead cells and fluorescents red. Stained cells were visualized using a fluorescence microscope (Zeiss—Axio Scope.A1) with a 20× objective lens. Percentage values of live and dead cells were calculated.
# Panc-1 cells [4] = test: Western blot analysis of Panc-1 lysates; settings: Panc-1, 48 h; low dose AS-10 2.5 μM, gemcitabine 50 μM
# Description: Whole-cell lysates were made by subjecting AS-10 treated Panc-1 cells to RIPA lysis buffer (Thermo Scientific, USA) containing protease (Roche, USA) and phosphatase inhibitor cocktails (Sigma-Aldrich, USA) (Plano et al., 2016, J. Med. Chem. 1946-1959). Lysates were spun at 15,000 rpm for 10 minutes. Resulting supernatant was stored at −80° C. until use. NuPAGE gel 4-12% (Life Technologies, Carlsbad, Calif.) was used to resolve the lysates, followed by electro-transfer to PVDF membrane. After the transfer membrane was blocked with 5% non-fat milk and probed with different antibodies. Protein of interest were detected by using enhanced Chemiluminescent reagent (Life technologies, USA). Blots were stripped using Restore Western blot stripping buffer (Thermo Scientific, USA) to save time and samples.
smiles,measurement,setting,value
"CC(=O)Oc1ccccc1C(=O)/N=C1\SCCN1C(=O)c1ccccc1OC(C)=O [ASD-123, 2-((3-(2-acetoxybenzoyl)-1,3-thiazolidin-2-ylidene)carbamoyl)phenyl acetate]",potency compared to AS-10,"Panc-1 cells [1]; Panc-1, 48 h (FIG. 5B), Se replaced by S",significant loss in the potency
"O=C(/N=C1\[Se]CCN1C(=O)c1ccccc1)c1ccccc1 [ASD-171, N-(3-benzoyl-1,3-selenazolidin-2-ylidene)benzamide]",potency compared to AS-10,Lung cancer cells (A549),significant loss in the potency
"CC(=O)Oc1ccccc1C(=O)O [aspirin, reference compound]",effect on PC cell lines at doses similar to AS-10,pancreatic cancer cells,did not have any effects
same,"EC50 range, growth inhibition (comparison)",LNCaP cells,millimolar range
"Nc1ccn([C@@H]2O[C@H](CO)[C@@H](O)C2(F)F)c(=O)n1 [gemcitabine, reference compound]",response of Panc-1 cells to treatment,"Panc-1 cells [1]; highest tested dose 500 μM, 48 h",resistant
same,total apoptotic cells,Panc-1 cells [2],~25%
same,dead cells,Panc-1 cells [3],~10%
same,PARP cleavage,Panc-1 cells [4],no effect on PARP cleavage
